Columns and labels:
[1] = tested on: TE-10 (Esophageal Squamous Cell Carcinoma); test: combination Emax (second highest fraction inhibited in the dose matrix, 72 h); higher = more inhibition; extreme values may be limits of the assay
In short: (§1)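 After 24 hours at 37°C and 5% CO2 in 1536-well plates, cells in DMEM/F12 or RPMI plus 10% FBS received two-drug dose matrices for 72 hours. Viability came from CellTiter-Glo 2.0 luminescence and was scaled as inhibition, anchored at 0 by vehicle wells and at 1 by blank wells. Combination Emax is taken as the second-highest inhibition in the matrix, and Bliss excess as the observed combination effect less EA + EB − EA·EB, with EA and EB the single-agent effects.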

A101D (Melanoma) = test: as above
In short: as §1

[2] = tested on: A253 (Head and Neck Carcinoma); test: as above
In short: as §1

[3] = tested on: Jurkat (T-Lymphoblastic Leukemia); test: as above
In short: as §1

RH-41 (Rhabdomyosarcoma) = test: as above
In short: as §1

[4] = tested on: HT55 (Colorectal Carcinoma); test: as above
In short: as §1

[5] = tested on: GCT (Other Solid Carcinomas); test: as above
In short: as §1

[6] = tested on: LS-411N (Colorectal Carcinoma); test: as above
In short: as §1

AU565 (Breast Carcinoma) = test: as above
In short: as §1

[7] = tested on: OACp4C (Esophageal Adenocarcinoma); test: as above
In short: as §1

[8] = tested on: huH-1 (Hepatocellular Carcinoma); test: as above
In short: as §1

[9] = tested on: NCI-H841 (Small Cell Lung Carcinoma); test: as above
In short: as §1

MKN1 (Gastric Carcinoma) [10] = test: as above
In short: as §1

[11] = tested on: NCI-H841 (Small Cell Lung Carcinoma); test: Bliss excess, mean over the matrix (fraction); higher = more synergy
In short: as §1

MKN1 (Gastric Carcinoma) [12] = test: as above
In short: as §1

KP-N-YN (Neuroblastoma) = test: combination Emax (second highest fraction inhibited in the dose matrix, 72 h); higher = more inhibition; extreme values may be limits of the assay
In short: as §1
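For Bliss excess, mean over the matrix in this document: after 72 h of two-drug dosing.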

SMILES	combination Emax [1]	combination Emax (A101D (Melanoma))	combination Emax [2]	combination Emax [3]	combination Emax (RH-41 (Rhabdomyosarcoma))	combination Emax [4]	combination Emax [5]	combination Emax [6]	combination Emax (AU565 (Breast Carcinoma))	combination Emax [7]	combination Emax [8]	combination Emax [9]	combination Emax (MKN1 (Gastric Carcinoma) [10])	Bliss excess [11]	Bliss excess (MKN1 (Gastric Carcinoma) [12])	combination Emax (KP-N-YN (Neuroblastoma))
CN(CCO)CC[C@H](CSc1ccccc1)Nc1ccc(S(=O)(=O)NC(=O)c2ccc(N3CCC([C@@H](O)c4ccccc4-c4ccc(Cl)cc4)CC3)cc2)cc1S(=O)(=O)C(F)(F)F [AZD4320] + C1CN(CCC1(C(=O)N[C@@H](CCO)C2=CC=C(C=C2)Cl)N)C3=NC=NC4=C3C=CN4 [Capivasertib] (first compound max 1 µM, 7x7, partner max 3 µM)	0.231	0.429	0.499	0.883	1	0.292	0.449	0.543	0.413	0.954	0.197					
CN(CCO)CC[C@H](CSc1ccccc1)Nc1ccc(S(=O)(=O)NC(=O)c2ccc(N3CCC([C@@H](O)c4ccccc4-c4ccc(Cl)cc4)CC3)cc2)cc1S(=O)(=O)C(F)(F)F [AZD4320] + C=CCn1c(=O)c2cnc(Nc3ccc(N4CCN(C)CC4)cc3)nc2n1-c1cccc(C(C)(C)O)n1 [AZD1775] (first compound max 1 µM, partner max 1 µM)	0.848		0.531	0.993	1	0.899	0.481	0.938	0.829	0.938	0.613					
CN(CCO)CC[C@H](CSc1ccccc1)Nc1ccc(S(=O)(=O)NC(=O)c2ccc(N3CCC([C@@H](O)c4ccccc4-c4ccc(Cl)cc4)CC3)cc2)cc1S(=O)(=O)C(F)(F)F [AZD4320] + CC(=O)O[C@H]1C(=O)[C@@]2(C)[C@H]([C@H](OC(=O)c3ccccc3)[C@]3(O)C[C@H](OC(=O)[C@H](O)[C@@H](NC(=O)c4ccccc4)c4ccccc4)C(C)=C1C3(C)C)[C@]1(OC(C)=O)CO[C@@H]1C[C@@H]2O [Paclitaxel] (first compound max 1 µM, 7x7, partner max 3 µM)												0.968	0.91	0.0423	0.0566	
CN(CCO)CC[C@H](CSc1ccccc1)Nc1ccc(S(=O)(=O)NC(=O)c2ccc(N3CCC([C@@H](O)c4ccccc4-c4ccc(Cl)cc4)CC3)cc2)cc1S(=O)(=O)C(F)(F)F [AZD4320] + CCN(CCO)CCCOc1ccc2c(Nc3cc(CC(=O)Nc4cccc(F)c4)[nH]n3)ncnc2c1 [AZD2811] (first compound max 1 µM, 7x7, partner max 1 µM)	0.463	0.667	0.467	0.512	0.828	0.376	0.239	0.567	0.34	0.863	0.297					
CN(CCO)CC[C@H](CSc1ccccc1)Nc1ccc(S(=O)(=O)NC(=O)c2ccc(N3CCC([C@@H](O)c4ccccc4-c4ccc(Cl)cc4)CC3)cc2)cc1S(=O)(=O)C(F)(F)F [AZD4320] + Nc1ccn([C@@H]2O[C@H](CO)[C@@H](O)C2(F)F)c(=O)n1 [Gemcitabine] (first compound max 1 µM, 7x7, partner max 0.3 µM)												0.322	0.759	-0.0317	0.0005	
COc1nnc2ccc(N3CCC(c4ccc(OCCN5CCN(C)C(=O)[C@H]5C)cc4)CC3)nn12 [AZD5153] + CN(CC[C@H](CSC1=CC=CC=C1)NC2=C(C=C(C=C2)S(=O)(=O)NC(=O)C3=CC=C(C=C3)N4CCC(CC4)[C@H](C5=CC=CC=C5C6=CC=C(C=C6)Cl)O)S(=O)(=O)C(F)(F)F)CCO [AZD4320] (first compound max 1 µM, 7x7, partner max 1 µM)		0.79	0.328	0.975	1	0.519	0.595	0.978	0.386	0.918	0.354					
Cc1cc2ncnn2cc1Nc1ncc2c(n1)n(C1CCOCC1)c(=O)n2C [AZD7648] + COc1cc([C@@H]2c3cc4c(cc3[C@@H](O[C@@H]3O[C@@H]5CO[C@@H](C)O[C@H]5[C@H](O)[C@H]3O)[C@H]3COC(=O)[C@H]23)OCO4)cc(OC)c1O [Etoposide] (first compound max 10 µM, 7x7, partner max 10 µM)												0.441	0.922	0.0261	0.0865	0.677
Cc1nc(Nc2ncc(C(=O)Nc3c(C)cccc3Cl)s2)cc(N2CCN(CCO)CC2)n1 [Dasatinib] + CC(=O)Nc1cccc(-n2c(=O)n(C3CC3)c(=O)c3c(Nc4ccc(I)cc4F)n(C)c(=O)c(C)c32)c1 [Trametinib] (first compound max 2 µM, 7x7, partner max 1 µM)		0.688	0.414	0.157	0.443	0.751	0.554	0.834	0.123	0.995	0.305	0.199	0.656	-0.0356	-0.0121	0.361
COc1cc2ncnc(Nc3ccc(F)c(Cl)c3)c2cc1OCCCN1CCOCC1 [Gefitinib] + CC(C)n1c(=O)n(C)c2cnc3cc(F)c(-c4ccc(OCCCN5CCCCC5)nc4)cc3c21 [AZD1390] (first compound max 10 µM, 7x7, partner max 0.3 µM)		0.267	0.196	0.199	0.147	0.353	0.12	0.0453	0.737	0.572	0.134	0.176	0.339	-0.0837	-0.0669	0.318
CC(=O)c1c(C)c2cnc(Nc3ccc(N4CCNCC4)cn3)nc2n(C2CCCC2)c1=O [Palbociclib] + CN(CC[C@H](CSC1=CC=CC=C1)NC2=C(C=C(C=C2)S(=O)(=O)NC(=O)C3=CC=C(C=C3)N4CCC(CC4)[C@H](C5=CC=CC=C5C6=CC=C(C=C6)Cl)O)S(=O)(=O)C(F)(F)F)CCO [AZD4320] (first compound max 10 µM, 7x7, partner max 1 µM)		0.738	0.202	0.917	0.883	0.498	0.421	0.691	0.227	0.839	0.31					
N#Cc1cnc(Nc2cc(NC[C@H]3CNCCO3)c(C(F)(F)F)cn2)cn1 [SRA737] + C=CCn1c(=O)c2cnc(Nc3ccc(N4CCN(C)CC4)cc3)nc2n1-c1cccc(C(C)(C)O)n1 [AZD1775] (first compound max 10 µM, partner max 1 µM)												0.514	0.916	0.0292	0.0971	
N#Cc1cnc(Nc2cc(NC[C@H]3CNCCO3)c(C(F)(F)F)cn2)cn1 [SRA737] + CCc1c2c(nc3ccc(O)cc13)-c1cc3c(c(=O)n1C2)COC(=O)[C@]3(O)CC [SN-38] (first compound max 10 µM, 7x7, partner max 0.3 µM)												0.62	0.866	0.044	0.0303	
N#Cc1cnc(Nc2cc(NC[C@H]3CNCCO3)c(C(F)(F)F)cn2)cn1 [SRA737] + Nc1ccn([C@@H]2O[C@H](CO)[C@@H](O)C2(F)F)c(=O)n1 [Gemcitabine] (first compound max 10 µM, 7x7, partner max 0.3 µM)												0.818	0.867	0.0776	0.0588	
N#Cc1cnc(Nc2cc(NC[C@H]3CNCCO3)c(C(F)(F)F)cn2)cn1 [SRA737] + O=c1[nH]cc(F)c(=O)[nH]1 [5-Fluorouracil] (first compound max 10 µM, 7x7, partner max 20 µM)												0.183	0.69	-0.0189	0.0221	
C[C@@H](c1ccc2nccn2c1)n1nnc2ncc(-c3cnn(C)c3)nc21 [Savolitinib] + CC1(C)CCC(CN2CCN(c3ccc(C(=O)NS(=O)(=O)c4ccc(NCC5CCOCC5)c([N+](=O)[O-])c4)c(Oc4cnc5[nH]ccc5c4)c3)CC2)=C(c2ccc(Cl)cc2)C1 [Venetoclax] (first compound max 1 µM, 7x7, partner max 1 µM)		0.2	0.092	0.188	0.201	0.0925	0.0973	0.0933	0.168	0.204	0.149	0.201	0.0845	-0.0333	-0.0402	0.569
C[C@@H](c1ccc2nccn2c1)n1nnc2ncc(-c3cnn(C)c3)nc21 [Savolitinib] + CN(CC[C@H](CSC1=CC=CC=C1)NC2=C(C=C(C=C2)S(=O)(=O)NC(=O)C3=CC=C(C=C3)N4CCC(CC4)[C@H](C5=CC=CC=C5C6=CC=C(C=C6)Cl)O)S(=O)(=O)C(F)(F)F)CCO [AZD4320] (first compound max 1 µM, 7x7, partner max 1 µM)		0.409	0.22	0.556	0.806	0.155	0.2	0.277	0.182	0.78	0.202					
C[C@@H](c1ccc2nccn2c1)n1nnc2ncc(-c3cnn(C)c3)nc21 [Savolitinib] + Cc1c2c(nn1C)CSCc1cc(n(C)n1)CSc1cc(c3ccccc3c1)OCCCc1c(C(=O)O)n(C)c3c-2c(Cl)ccc13 [AZD5991] (first compound max 1 µM, 7x7, partner max 1 µM)		0.386	0.38	0.575	0.888	0.187	0.211	0.188	1	0.283	0.16	0.266	0.111	-0.0178	-0.0366	0.324
